Assay results taken from PubChem BioAssay (NCI).
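96-well plates; 48 h exposure; 5 concentrations. Endpoints by linear interpolation between flanking doses. Not reached: highest tested concentration assigned. TGI is the concentration that stops growth completely.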 Where a SMILES comes first, the peptide text is derived from it. The star is where a group is joined. Fmoc = O=C(OCC1c2ccccc2-c2ccccc21)*; OBn = c1ccc(CO*)cc1; tBu = CC(C)(C)*

Experiments:
Experiment in all cases: growth of human tumour cells (NCI), 48 h
[1] = tested on: 786-0 renal
[2] = tested on: A498 renal
[3] = tested on: A549 NSCLC
[4] = tested on: ACHN renal
[5] = tested on: BT-549 breast
[6] = tested on: CAKI-1 renal
[7] = tested on: CCRF-CEM leukemia
[8] = tested on: COLO 205 colon
[9] = tested on: DU-145 prostate
[10] = tested on: EKVX NSCLC
[11] = tested on: HCC-2998 colon
[12] = tested on: HCT-116 colon
[13] = tested on: HCT-15 colon
[14] = tested on: HL-60(TB) leukemia
[15] = tested on: HOP-62 NSCLC
[16] = tested on: HOP-92 NSCLC
[17] = tested on: HS 578T breast
[18] = tested on: HT29 colon
[19] = tested on: IGROV1 ovarian
[20] = tested on: K-562 leukemia
[21] = tested on: KM12 colon
[22] = tested on: LOX IMVI melanoma
[23] = tested on: M14 melanoma
[24] = tested on: MALME-3M melanoma
[25] = tested on: MCF7 breast
[26] = tested on: MDA-MB-231 breast
[27] = tested on: MDA-MB-435
[28] = tested on: MDA-N
[29] = tested on: MOLT-4 leukemia
[30] = tested on: NCI-H226 lung
[31] = tested on: NCI-H23 lung
[32] = tested on: NCI-H460 lung
[33] = tested on: NCI-H522 lung
[34] = tested on: NCI/ADR-RES ovarian
[35] = tested on: OVCAR-3 ovarian
[36] = tested on: OVCAR-4 ovarian
[37] = tested on: OVCAR-5 ovarian
[38] = tested on: OVCAR-8 ovarian
[39] = tested on: PC-3 prostate
[40] = tested on: RPMI-8226 leukemia
[41] = tested on: RXF 393 renal
[42] = tested on: SF-268 CNS
[43] = tested on: SF-295 CNS
[44] = tested on: SF-539 CNS
[45] = tested on: SK-MEL-2 melanoma
[46] = tested on: SK-MEL-28 melanoma
[47] = tested on: SK-MEL-5 melanoma
[48] = tested on: SK-OV-3 ovarian
[49] = tested on: SN12C renal
[50] = tested on: SNB-19 CNS
[51] = tested on: SNB-75 CNS
[52] = tested on: SR leukemia
[53] = tested on: SW-620 colon
[54] = tested on: T-47D breast
[55] = tested on: TK-10 renal
[56] = tested on: U251 CNS
[57] = tested on: UACC-257 melanoma
[58] = tested on: UACC-62 melanoma
[59] = tested on: UO-31 renal

Measured: TGI

CC(OC(C)(C)C)C(NC(=O)OCC1c2ccccc2-c2ccccc21)C(=O)NC(Cc1ccccc1)C(=O)OCc1ccccc1 (stereo not given) (Fmoc-Thr(tBu)-Phe-OBn; configuration not given here)
> 100 µM: all assays above

N#Cc1cc2c(n(C3OC(CO)C(O)C(O)C3O)c1=S)CCC2 (stereo not given)
not listed: [10] | [48] | [53]
> 100 µM: all other assays above
